From patent publication US9403874B2, “Peptides and use thereof” (IL YANG PHARM. CO.,LTD., priority 2012, dated 2016)

Columns and labels:
Type in all cases: cell-based
Details in all cases: 100 ng/me of peptide; EBV-infected B cells stimulated with anti-CD150; ELISA of culture supernatant
IL-1A = test: Reduction of IL-1A secretion in activated B cells (ELISA)
Description: (§1) In order to determine the activity of the novel peptides synthesized in Example 1 for reducing the secretion of inflammatory cytokines, the activated pathogenic B cells were treated with each of the 18 types of synthesized novel peptides and the reduction in secretion of inflammatory cytokines from the B cells was monitored.
(§2) Specifically, in order to determine whether the novel peptides could weaken the pathogenic B cells which are involved in the development of disease symptoms, the in vitro B cells model which is similar to the joint infiltrative B cells of rheumatoid arthritis was used. The activated pathogenic B cell was generated by stimulating Ebstein Barr virus (EBV)-infected B cells with anti-CD150 antibodies, and the cells were treated with […] of each of the 18 types of novel peptide.
(§3) In order to confirm the effect of 18 types of novel peptides in reducing inflammatory cytokines, the secretion amount of various cytokines (IL-1A, IL-1B, IL-2, IL-4, IL-5, IL-6, IL-8, IL-10, IL-12A, IL-13, IL-17A, GM-CSF, IL-34) secreted from the activated B cells was measured. The supernatants of B cell culture were analyzed enzyme-linked immunosorbent assay (ELISA), and the difference in absorbance (450 nm-570 nm) of the color developing reagent was measured as test results. Based on the measured difference in absorbance (450 nm-570 nm) of the color developing reagent, the absorbance of cytokines secreted when treated with the 18 types of novel […] was calculated in percentage, while setting the absorbance corresponding to the cytokines secreted from the activated B cells stimulated by anti-CD150 as 100%.

IL-1B = test: Reduction of IL-1B secretion in activated B cells (ELISA)
Description: as §1, §2, §3

IL-2 = test: Reduction of IL-2 secretion in activated B cells (ELISA)
Description: as §1, §2, §3

IL-4 = test: Reduction of IL-4 secretion in activated B cells (ELISA)
Description: as §1, §2, §3

IL-5 = test: Reduction of IL-5 secretion in activated B cells (ELISA)
Description: as §1, §2, §3

IL-6 = test: Reduction of IL-6 secretion in activated B cells (ELISA)
Description: as §1, §2, §3

IL-8 = test: Reduction of IL-8 secretion in activated B cells (ELISA)
Description: as §1, §2, §3

IL-10 = test: Reduction of IL-10 secretion in activated B cells (ELISA)
Description: as §1, §2, §3

IL-12A = test: Reduction of IL-12A secretion in activated B cells (ELISA)
Description: as §1, §2, §3

IL-13 = test: Reduction of IL-13 secretion in activated B cells (ELISA)
Description: as §1, §2, §3

IL-17A = test: Reduction of IL-17A secretion in activated B cells (ELISA)
Description: as §1, §2, §3

IL-34 = test: Reduction of IL-34 secretion in activated B cells (ELISA)
Description: as §1, §2, §3

GM-CSF = test: Reduction of GM-CSF secretion in activated B cells (ELISA)
Description: as §1, §2, §3

| Substance | Inhibition rate of each cytokine compared to CD150-stimulated EBV-t B cells (%) IL-1A (IL-1A) [%] | Inhibition rate of each cytokine compared to CD150-stimulated EBV-t B cells (%) IL-1B (IL-1B) [%] | Inhibition rate of each cytokine compared to CD150-stimulated EBV-t B cells (%) IL-2 (IL-2) [%] | Inhibition rate of each cytokine compared to CD150-stimulated EBV-t B cells (%) IL-4 (IL-4) [%] | Inhibition rate of each cytokine compared to CD150-stimulated EBV-t B cells (%) IL-5 (IL-5) [%] | Inhibition rate of each cytokine compared to CD150-stimulated EBV-t B cells (%) IL-6 (IL-6) [%] | Inhibition rate of each cytokine compared to CD150-stimulated EBV-t B cells (%) IL-8 (IL-8) [%] | Inhibition rate of each cytokine compared to CD150-stimulated EBV-t B cells (%) IL-10 (IL-10) [%] | Inhibition rate of each cytokine compared to CD150-stimulated EBV-t B cells (%) IL-12A (IL-12A) [%] | Inhibition rate of each cytokine compared to CD150-stimulated EBV-t B cells (%) IL-13 (IL-13) [%] | Inhibition rate of each cytokine compared to CD150-stimulated EBV-t B cells (%) IL-17A (IL-17A) [%] | Inhibition rate of each cytokine compared to CD150-stimulated EBV-t B cells (%) IL-34 (IL-34) [%] | Inhibition rate of each cytokine compared to CD150-stimulated EBV-t B cells (%) GM-CSF (GM-CSF) [%] |
| --- | --- | --- | --- | --- | --- | --- | --- | --- | --- | --- | --- | --- | --- |
| PSPRDG (SIS-1#5 peptide) | 8.3 | 14.2 | 6.8 | 13.2 | 9.8 | 18.7 | 10.5 | 7.2 | 8.9 | 15.2 | 12.8 | 13.2 | 7.5 |
| RDG (SIS-1#14 peptide) | 7.2 | 5.3 | 10.2 | 3.0 | 11.0 | 1.5 | 5.7 | 10.4 | 2.9 | 4.4 | 7.7 | 4.2 | 0.3 |
| GRTDG (SIS-1#10 peptide) | 7.8 | 4.2 | 11.4 | 19.5 | 24.2 | 25.0 | 17.9 | 7.5 | 29.8 | 25.7 | 25.0 | 27.0 | 13.0 |
| RDGRT (SIS-1#16 peptide) | 16.2 | 17.0 | 15.4 | 23.9 | 20.3 | 22.8 | 33.0 | 31.2 | 29.8 | 24.5 | 32.8 | 23.1 | 6.2 |
